System: gray mold fungus (Botrytis cinerea)
Test: Cucumber leaf disk preventive test against gray mold fungus (Test Examples 1 and 2, Reference Examples)
Assay type: in vivo
Settings: 15° C., four days
Method: To a SUS beaker are added 30 parts of the present compound (racemate), 5 parts of Soprophor FLK (polyoxyethylene tristyrylphenyl ether phosphate, produced by Rhodia Nicca Ltd.), 65 parts of ion-exchange water and 150 parts of glass beads (1.0 mm diameter). The mixture is subjected to grinding at a velocity of 1000 rpm with cooling to 10° C., and thereafter the glass beads are separated, so as to obtain a flowable formulation comprising the present compound (racemate).
True leaf of cucumber is punched out with cork borer to 13 mm in diameter to prepare a leaf disk. In 24 well microwell plate that is dispensed with 1 ml 0.8% water agar, the leaf disk is placed such that the upper side of the leaf is in an upward direction. Thereto is added 20 micro liter a testing solution prepared by mixing the flowable formulation of the present compound (racemate) prepared by the above procedure and a commercial liquid formulation of validamycin or a commercial wettable powders of polyoxins to a predetermined concentration to treat the leaf disk.
After confirming that the testing medical solution is dried, conidium of gray mold fungus (Botrytis cinerea) is suspended into potato dextrose broth (DIFCO) in a density of about 10^5 conidium/mL and is then subjected to a spray inoculation. After leaving to stand the leaf disk in a growth chamber set up at 15° C. for four days, an onset area on the leaf is measured and then calculated an onset area rate (hereinafter, referred to as an onset area rate of treated group).
The same operation is carried out with 20 micro liter water instead of 20 micro liter a testing medicine solution to calculate an onset area rate (hereinafter, referred to an onset area rate of non-treated group).
A preventive value is calculated from the above onset area rate of treated group and the onset area rate of non-treated group by the following equation: Preventive value (%)=100×(A−B)/A
A: an onset area rate of treated group
B: an onset area rate of non-treated group
The same operations as described in Test Example 1 are carried out with kasugamycin or streptomycin instead of validamycin or polyoxins, so as to calculate respective preventive values.
Also for comparison, the same operations as described in Test Example 1 are carried out with the exception that the testing medicine solution is substituted with a predetermined concentration of either a flowable formulation of the present amide compound or a commercial wettable powder of kasugamycin or streptomycin, so as to calculate respective preventive values.
For comparison, the same operations as described in Test Example 1 are carried out with the exception that the testing medicine solution is substituted with a predetermined concentration of a solution of a wettable powder of validamycin or polyoxins, so as to calculate a preventive value.

[1] = antibiotic compound alone 0.5 ppm
[2] = antibiotic compound alone 5.0 ppm

Row | Molecule | preventive value (%) [1] [%] | preventive value (%) [2] [%]
1 | C[C@H]1O[C@H](O[C@H]2[C@H](O)[C@@H](O)[C@@H](O)[C@H](O)[C@@H]2O)[C@@H](N)C[C@@H]1NC(=N)C(=O)O [kasugamycin] | 0 | 10
2 | [H]/N=C(/N)N[C@H]1[C@H](O)[C@@H](O)[C@H](O[C@@H]2O[C@@H](C)[C@](O)(C=O)[C@H]2O[C@@H]2O[C@@H](CO)[C@H](O)[C@@H](O)[C@@H]2NC)[C@@H](N/C(N)=N\[H])[C@@H]1O [streptomycin] | 0 | 10
3 | OCC1=C[C@H](N[C@H]2C[C@H](CO)[C@@H](O[C@@H]3O[C@H](CO)[C@@H](O)[C@H](O)[C@H]3O)[C@H](O)[C@H]2O)[C@H](O)[C@@H](O)[C@@H]1O [validamycin] | 5 | 10
4 | polyoxins | 11 | 15
